The structures appear in SMILES notation. Where only a bound is given, the exact number is not on record here.

For the first assay, the target named is T1, human full length HSD11 β 1 (Homo sapiens, UniProt P28845).
T1 construct: transient expression of human full length HSD11 β 1 expression vector; host or cells: CHO cells (transient transfection)
T1 sequence (P28845 whole entry): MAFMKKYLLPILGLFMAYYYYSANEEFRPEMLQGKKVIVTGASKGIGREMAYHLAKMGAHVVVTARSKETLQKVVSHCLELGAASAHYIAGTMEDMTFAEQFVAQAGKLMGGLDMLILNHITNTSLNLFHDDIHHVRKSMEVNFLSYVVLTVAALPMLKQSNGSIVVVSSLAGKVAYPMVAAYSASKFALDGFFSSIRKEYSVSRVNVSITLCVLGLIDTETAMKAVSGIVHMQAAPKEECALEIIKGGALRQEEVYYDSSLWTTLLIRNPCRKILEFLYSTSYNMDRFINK
The experiment in a line: In Vitro HSD11β1 Inhibition Assay. The class given is cell-based. The note with it: 11βHSD1 (IC50). An outline of the steps: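 CHO cells transiently transfected with human full-length HSD11β1 were re-seeded after 24 h and, 24 h later, incubated overnight with 200 nM cortisone plus 500 uM NADPH and inhibitor. Cortisone-to-cortisol conversion was measured by LC/MS-MS. IC50 from an 8-point log concentration–inhibition curve.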
Compound `Cc1cccc2[nH]cc(C(=O)CC(=O)N3CCCC4CCCCC43)c12` (stereo not drawn) [Compound 30, 1-(4-methyl-1H-indol-3-yl)-3-(octahydroquinolin-1(2H)-yl)propane-1,3-dione] gave an IC50 of over 250 nM.

Staying with this assay, now noted: CHO cells transiently expressing human HSD11β1; 200 nM cortisone+500 uM NADPH overnight; cortisone to cortisol by LC/MS-MS; read-out: 11βHSD1 (IC50).
On to `CC(CC(=O)N1CCCC2C(C(=O)O)CCCC21)c1c[nH]c2cccc(-c3ccc(F)cc3)c12` (single isomer, unassigned) [Compound 255, 1-{3-[4-(4-fluorophenyl)-1H-indol-3-yl]butanoyl}decahydroquinoline-5-carboxylic acid], for which the IC50 is under 100 nM.
On the same count and under the same terms, under `O=C(CCc1nc2ccccc2s1)N1CC2CCCCC2C1` (stereo not drawn) [Example 82, 3-(1,3-benzothiazol-2-yl)-1-(octahydro-2H-isoindol-2-yl)propan-1-one] stands over 250 nM; under `CC(CC(=O)N1CCCC2C(C(=O)O)CCCC21)c1c[nH]c2cccc(-c3ccc(F)o3)c12` (stereo not drawn) [Compound 245, 1-{3-[4-(5-fluorofuran-2-yl)-1H-indol-3-yl]butanoyl}decahydroquinoline-5-carboxylic acid], under 100 nM.
For the compound `O=C(CSc1c[nH]c2ccccc12)N1CCCC2CCCCC21` (stereo not drawn) [Compound 5, 2-(1H-indol-3-ylsulfanyl)-1-(octahydroquinolin-1(2H)-yl)ethanone], the IC50 was under 100 nM.
The same measure, in the same setting: in the case of `Cn1cc(CCC(=O)N2CCCC3CCCCC32)c2cc(O)ccc21` (stereo not drawn) [Compound 24, 3-(5-hydroxy-1-methyl-1H-indol-3-yl)-1-(octahydroquinolin-1(2H)-yl)propan-1-one] it was over 250 nM; in that of `O=C(CCc1c[nH]c2ccccc12)N1CCCC2CCCCC21` (single isomer, unassigned) [Compound 53, 3-(1H-indol-3-yl)-1-(octahydroquinolin-1(2H)-yl)propan-1-one], under 100 nM; in that of `CC12CCCCC1N(C(=O)CCc1c[nH]c3ccccc13)CCC2` (single isomer, unassigned) [Compound 55, 3-(1H-indol-3-yl)-1-(4a-methyloctahydroquinolin-1(2H)-yl)propan-1-one], under 100 nM.
Take `O=C1CCN(C(=O)CCc2c[nH]c3cc(F)ccc23)C2CCCCC12` (stereo not drawn) [Compound 43, 1-[3-(6-fluoro-1H-indol-3-yl)propanoyl]octahydroquinolin-4(1H)-one]: the IC50 is over 250 nM.
Consider `Cc1ccnc2[nH]cc(C(CC(=O)N3CCC(C(=O)O)C4CCCCC43)C(C)C)c12` (stereo not drawn) [Example 180, 1-[4-methyl-3-(4-methyl-1H-pyrrolo[2,3-b]pyridin-3-yl)pentanoyl]decahydroquinoline-4-carboxylic acid], for which the IC50 is over 250 nM.
`CCC(CC(=O)N1CCC(C(=O)O)C2CCCCC21)c1c[nH]c2cccc(Cl)c12` (stereo not drawn) [Example 187, 1-[3-(4-chloro-1H-indol-3-yl)pentanoyl]decahydroquinoline-4-carboxylic acid]: the half-maximal inhibitory concentration (IC50) was over 250 nM.
In the case of `CC(CC(=O)N1CCO[C@H]2CCCCC21)c1c[nH]c2cccc(F)c12` (single isomer, unassigned) [Example 140, 3-(4-fluoro-1H-indol-3-yl)-1-[cis-(4a,8a)-octahydro-4H-1,4-benzoxazin-4-yl]butan-1-one], the IC50 was under 100 nM.
Same read-out and setting: in the case of `CC(CC(=O)N1CCCC2C(C(=O)O)CCCC21)c1cn(C)c2cccc(C3CC3)c12` (stereo not drawn) [Compound 204, 1-[3-(4-cyclopropyl-1-methyl-1H-indol-3-yl)butanoyl]decahydroquinoline-5-carboxylic acid] it was under 100 nM; in that of `O=C(CCc1cn(S(=O)(=O)c2ccccc2)c2ncccc12)N1CCCC2CCCCC21` (stereo not drawn) [Example 85, 1-(octahydroquinolin-1(2H)-yl)-3-[1-(phenylsulfonyl)-1H-pyrrolo[2,3-b]pyridin-3-yl]propan-1-one], over 250 nM; in that of `CC(CC(=O)N1C(C)CCC2C(C(=O)O)CCCC21)c1c[nH]c2cccc(-c3cccs3)c12` (stereo not drawn) [Compound 233, 2-methyl-1-{3-[4-(thiophen-2-yl)-1H-indol-3-yl]butanoyl}decahydroquinoline-5-carboxylic acid], over 250 nM.
Turning to `Cc1cccc2c1c(CCC(=O)N1CCO[C@@H]3CCCC[C@H]31)cn2C` (single isomer, unassigned) [Compound 65, 3-(1,4-dimethyl-1H-Indol-3-yl)-1-[trans-(4a,8a)-octahydro-4H-1,4-benzoxazin-4-yl]propan-1-one], the IC50 is over 250 nM.
`CC(CC(=O)N1CCC2CCCCC21)c1nc2ccccc2s1` (stereo not drawn) [Example 142, 3-(1,3-benzothiazol-2-yl)-1-(octahydro-1H-indol-1-yl)butan-1-one]: the IC50 is under 100 nM.
On the same count and under the same terms, in the case of `O=C(Cc1c[nH]c2ccccc12)N1CCCC2CCCCC21` (stereo not drawn) [Compound 9, 2-(1H-indol-3-yl)-1-(octahydroquinolin-1(2H)-yl)ethanone] it was 200 to 250 nM; in that of `CCOC(=O)C12CCCCC1N(C(=O)CC(C)c1nc3ccccc3s1)CCC2` (stereo not drawn) [Example 141, ethyl 1-[3-(1,3-benzothiazol-2-yl)butanoyl]octahydroquinoline-4a(2H)-carboxylate], over 250 nM; in that of `CC(C)C(CC(=O)N1CCCC2(C)CCCCC12)c1c[nH]c2cccc(F)c12` (single isomer, unassigned) [Example 115, 3-(4-fluoro-1H-indol-3-yl)-4-methyl-1-(4a-methyloctahydroquinolin-1(2H)-yl)pentan-1-one], over 250 nM.
Regarding `CC(C)C(CC(=O)N1CCC(C(=O)O)C2CCCCC21)c1c[nH]c2ccccc12` (stereo not drawn) [Example 105, 1-[3-(1H-indol-3-yl)-4-methylpentanoyl]decahydroquinoline-4-carboxylic acid], the IC50 was over 250 nM.
Take `O=C(CCn1ccc2ccccc21)N1CCCC2CCCCC21` (stereo not drawn) [Compound 18, 3-(1H-indol-1-yl)-1-(octahydroquinolin-1(2H)-yl)propan-1-one]: the IC50 is over 250 nM.
On to `CC(CC(=O)N1CCCC2C(C(=O)O)CCCC21)c1c[nH]c2cccc(-c3ccc(F)cc3)c12` (stereo not drawn) [Compound 253, 1-{3-[4-(4-fluorophenyl)-1H-indol-3-yl]butanoyl}decahydroquinoline-5-carboxylic acid], for which the half-inhibitory concentration (IC50) was under 100 nM.
For `CC(CC(=O)N1CCCC2C(C(=O)O)CCCC21)c1cn(C)c2cccc(C3CC3)c12` (single isomer, unassigned) [Compound 214, 1-[3-(4-cyclopropyl-1-methyl-1H-indol-3-yl)butanoyl]decahydroquinoline-5-carboxylic acid], the IC50 is under 100 nM.
Still for that read-out and setting: in the case of `CC(CC(=O)N1CCCC2C(C(=O)O)CCCC21)c1c[nH]c2ccc(F)c(C3CC3)c12` (stereo not drawn) [Compound 220, 1-[3-(4-cyclopropyl-5-fluoro-1H-indol-3-yl)butanoyl]decahydroquinoline-5-carboxylic acid] it was under 100 nM; in that of `CC(CC(=O)N1CCCC2C(C(=O)O)CCCC21)c1c[nH]c2cccc(-c3ccco3)c12` (single isomer, unassigned) [Compound 224, 1-{3-[4-(furan-2-yl)-1H-indol-3-yl]butanoyl}decahydroquinoline-5-carboxylic acid], under 100 nM.
Take `Cc1cccc2c1c(CCC(=O)N1CCCC3CCCCC31)cn2C1CC1` (stereo not drawn) [Compound 28, 3-(1-cyclopropyl-4-methyl-1H-indol-3-yl)-1-(octahydroquinolin-1(2H) -yl)propan-1-one]: the IC50 lay in the range of 100 to 150 nM.
Turning to `O=C(O)C1CC2CCCCC2N(C(=O)CC(c2ccccc2)c2c[nH]c3cccc(F)c23)C1` (stereo not drawn) [Example 176, 1-[3-(4-fluoro-1H-indol-3-yl)-3-phenylpropanoyl]decahydroquinoline-3-carboxylic acid], the IC50 was in the range of 150 to 200 nM.
Regarding `CC(CC(=O)N1CCCC2C(C(=O)O)CCCC21)c1c[nH]c2cccc(-c3ccc(F)o3)c12` (single isomer, unassigned) [Compound 249, 1-{3-[4-(5-fluorofuran-2-yl)-1H-indol-3-yl]butanoyl}decahydroquinoline-5-carboxylic acid], the IC50 is 200 to 250 nM.
With `CC(CC(=O)N1CCC(CC(=O)O)C2CCCCC21)c1c[nH]c2cccc(C3CC3)c12` (stereo not drawn) [Compound 189, (1-[3-(4-cyclopropyl-1H-indol-3-yl)butanoyl]decahydroquinolin-4-yl)acetic acid], the IC50 was over 250 nM.
The same measure, in the same setting: in the case of `Cn1cc(CCC(=O)N2CCO[C@@H]3CCCC[C@H]32)c2ccccc21` (relative stereo) [Compound 63, 3-(1-methyl-1H-indol-3-yl)-1-[(trans-4a,8a)-octahydro-4H-1,4-benzoxazin-4-yl]propan-1-one] it was over 250 nM; in that of `CC(C)(Sc1nc2ccccc2s1)C(=O)N1CCCC2CCCCC21` (stereo not drawn) [Example 74, 2-(1,3-benzothiazol-2-ylsulfanyl)-2-methyl-1-(octahydroquinolin-1(2H)-yl)propan-1-one], over 250 nM; in that of `CC(CC(=O)N1CCCC2(C)CCCCC12)c1cn(C)c2ccccc12` (stereo not drawn) [Example 113, 3-(1-methyl-1H-Indol-3-yl)-1-(4a-methyloctahydroquinolin-1(2H)-yl)butan-1-one], over 250 nM.
Regarding `O=C(CCc1c[nH]c2ncccc12)N1CCCC2CCCCC21` (stereo not drawn) [Example 84, 1-(octahydroquinolin-1(2H)-yl)-3-(1H-pyrrolo[2,3-b]pyridin-3-yl)propan-1-one], the IC50 is under 100 nM.
Consider `O=C(CCc1c[nH]c2ccccc12)N1CCCC2CCCCC21` (stereo not drawn) [Example 93, 3-(1H-indol-3-yl)-1-(octahydroquinolin-1(2H)-yl)propan-1-one], for which the IC50 was under 100 nM.
In the case of `CC(CC(=O)N1CCOC2CCCCC21)c1c[nH]c2ncccc12` (stereo not drawn) [Compound 22, 1-(octahydro-4H-1,4-benzoxazin-4-yl)-3-(1H-pyrrolo[2,3-b]pyridin-3-yl)butan-1-one], the half-inhibitory concentration (IC50) is over 250 nM.

The values are drawn from patent US9453014B2, “Cyclic amide derivatives as inhibitors of 11-β-hydroxysteroid dehydrogenase and uses thereof” (CONNEXIOS LIFE SCIENCES PVT. LTD., priority 2011, dated 2016).
